pIC50: −log10 of the molar value.
Experiments:
MOLM13 cells = test: [14C]-thymidine incorporation cell proliferation assay, MOLM13; assay type: cell-based, human
Description: The cell proliferation inhibition potency of the CDK4/6-FLT3 inhibitors was determined by using a [^14C]-thymidine incorporation assay. Exponentially growing cells (MOLM-13, Colo-205, etc.) were seeded in a 96-well Cytostar T plate (GE Healthcare Biosciences) at a density of 5×10^3 cells/well and incubated overnight. Serially diluted compounds and 0.1 μCi of [^14C]-thymidine (GE Healthcare Biosciences) were added to each well on the following day. After 72 hour incubation, isotope incorporation was determined with a β plate counter (Wallac). MOLM13 is a human AML tumor cell line expressing FLT3, FLT3^ITD and wild type Rb.
(§1) IC50 values of the compounds in the above assays were determined by non-linear regression analysis using Prism (GraphPad Software).

CDK4/Cyclin D1 = CDK4/Cyclin D1 (Homo sapiens (Human), UniProt P11802); test: CDK4 filtration kinase assay; assay type: biochemical; conditions: CDK4/Cyclin D1, Rb fragment substrate, [33P]-ATP filtration assay
CDK4/Cyclin D1, sequence (P11802 whole entry, the tested form may be a part): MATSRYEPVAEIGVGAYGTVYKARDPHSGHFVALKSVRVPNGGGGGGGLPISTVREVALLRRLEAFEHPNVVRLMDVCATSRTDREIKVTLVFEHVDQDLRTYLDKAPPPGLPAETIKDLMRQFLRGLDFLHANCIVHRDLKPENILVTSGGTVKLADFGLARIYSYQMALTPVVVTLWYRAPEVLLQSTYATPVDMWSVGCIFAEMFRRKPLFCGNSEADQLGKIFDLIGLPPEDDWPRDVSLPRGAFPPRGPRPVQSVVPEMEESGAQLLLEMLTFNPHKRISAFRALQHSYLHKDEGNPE
CDK4/Cyclin D1, sequence (P24385 whole entry partner, the tested form may be a part): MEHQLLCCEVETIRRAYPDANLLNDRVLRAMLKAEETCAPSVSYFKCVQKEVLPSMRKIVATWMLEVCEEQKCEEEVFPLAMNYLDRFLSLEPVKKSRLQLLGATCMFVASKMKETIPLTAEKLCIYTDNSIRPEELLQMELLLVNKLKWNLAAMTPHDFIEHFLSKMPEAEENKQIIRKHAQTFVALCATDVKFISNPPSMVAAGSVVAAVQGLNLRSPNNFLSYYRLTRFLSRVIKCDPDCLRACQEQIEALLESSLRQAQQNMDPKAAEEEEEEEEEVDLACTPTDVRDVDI
Description: The CDK4 and CDK1 inhibitory activity of the CDK4/6-FLT3 inhibitors was determined with a filtration kinase assay. The compounds, kinase and substrate diluted in the kinase buffer (20 mM Tris, pH7.4, 50 mM NaCl, 1 mM DTT, 0.1% BSA) were sequentially added to a 96-well Multiscreen HTS filtration plate (Millipore). The final 100 μL reaction mixture in each well contained 0.3 μg of CDK4/Cyclin D1 or CDK1/Cyclin B (Cell Signaling Technology), 1 μg of Rb fragment (aa773-928, Millipore) for the CDK4 assay or 5 μg of histone H1 for the CDK1 assay and 1 μCi of [^33P]-ATP. The mixture was incubated at room temperature for 1 hour. The proteins in the reaction were then precipitated and washed with cold TCA solution using an aspiration/filtration vacuum system. The plates were dried at room temperature, and the retained radioactivity was measured by scintillation counting.
as §1

[1] = target: FLT3 enzyme (GST-FLT3 fusion) (Homo sapiens (Human), UniProt P36888); test: FLT3 HTRF kinase assay; assay type: biochemical; conditions: 116 μM ATP
FLT3 enzyme (GST-FLT3 fusion), sequence (P36888 27-993): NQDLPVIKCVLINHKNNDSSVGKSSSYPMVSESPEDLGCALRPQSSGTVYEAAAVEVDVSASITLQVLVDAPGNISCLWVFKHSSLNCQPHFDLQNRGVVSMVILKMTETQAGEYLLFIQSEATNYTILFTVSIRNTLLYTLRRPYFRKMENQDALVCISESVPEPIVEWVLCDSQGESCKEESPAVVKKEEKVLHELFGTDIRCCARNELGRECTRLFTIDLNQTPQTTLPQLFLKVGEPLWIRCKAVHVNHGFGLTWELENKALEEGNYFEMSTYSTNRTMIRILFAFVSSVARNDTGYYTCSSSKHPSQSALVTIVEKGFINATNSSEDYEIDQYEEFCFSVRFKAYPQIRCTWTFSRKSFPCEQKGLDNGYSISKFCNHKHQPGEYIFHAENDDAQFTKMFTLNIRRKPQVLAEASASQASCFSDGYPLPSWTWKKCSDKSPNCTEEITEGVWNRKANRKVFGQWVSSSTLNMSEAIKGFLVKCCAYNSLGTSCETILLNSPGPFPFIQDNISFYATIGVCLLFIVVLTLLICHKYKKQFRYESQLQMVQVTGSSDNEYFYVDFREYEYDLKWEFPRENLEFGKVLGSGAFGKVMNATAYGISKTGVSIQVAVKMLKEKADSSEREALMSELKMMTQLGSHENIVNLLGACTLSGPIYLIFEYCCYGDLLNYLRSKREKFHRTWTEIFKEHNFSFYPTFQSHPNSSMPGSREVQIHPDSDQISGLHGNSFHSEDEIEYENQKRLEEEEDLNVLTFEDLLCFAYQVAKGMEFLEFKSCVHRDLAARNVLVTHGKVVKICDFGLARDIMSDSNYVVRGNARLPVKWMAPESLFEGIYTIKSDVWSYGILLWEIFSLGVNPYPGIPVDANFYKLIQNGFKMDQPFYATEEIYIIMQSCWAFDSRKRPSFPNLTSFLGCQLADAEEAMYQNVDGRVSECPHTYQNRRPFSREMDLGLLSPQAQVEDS
Description: The FLT3 inhibitory activity of the CDK4/6-FLT3 inhibitors was determined with a HTRF kinase assay. The FLT3 enzyme (GST-FLT3 fusion) was purchased from Carna Biosciences. An ULight-labeled synthetic peptide derived from human Janus kinase 1 (aa1015-1027, ULight-JAK1, PerkinElmer) was utilized as the phosphoacceptor substrate. The assay was conducted in a 384-well white OptiPlate (PerkinElmer). The 20 μL reaction mixture contained 50 nM ULight-JAK1, 116 μM ATP, 0.0385 ng/μL FLT3 and dilutions of test compounds in the kinase buffer (50 mM Hepes, pH 7.6, 1 mM EGTA, 10 mM MgCl2, 2 mM DTT, and 0.005% Tween 20). The reaction was allowed to proceed for 1 hour at room temperature and was stopped by adding 20 μL of 10 mM EDTA, 2 nM LANCE® Eu-W1024 anti-phospho-tyrosine antibody in LANCE® detection buffer (PerkinElmer). The plates were incubated at room temperature for 2 hours after addition of detection reagents and then read on an Envision multimode reader (PerkinElmer).
as §1

[2] = Homo sapiens, MOLM-13, 72 hour incubation

Row | Structure (SMILES) | pIC50 (MOLM13 cells; [2]) | pIC50 (CDK4/Cyclin D1) | pIC50 [1] | pIC50 (MOLM13 cells; 72 hour incubation)
1 | CN(C)CC(=O)N1CCc2nc(Nc3ncc4c5ccncc5n([C@H]5CC[C@H](C)CC5)c4n3)ccc2C1 [Example 34, 2-(Dimethylamino)-1-(2-((9-((1r,4r)-4-methylcyclohexyl)-9H-pyrido[4′,3′:4,5]pyrrolo[2,3-d]pyrimidin-2-yl)amino)-7,8-dihydro-1,6-naphthyridin-6(5H)-yl)ethanone] | 9.52 | 8.52 | – | –
2 | CC(=O)N1Cc2ccc(Nc3ncc4c5ccncc5n([C@H]5CC[C@H](C)CC5)c4n3)nc2C(C)C1 (stereo partly shown) [Example 14, 1-(8-Methyl-2-((9-((1r,4r)-4-methylcyclohexyl)-9H-pyrido[4′,3′:4,5]pyrrolo[2,3-d]pyrimidin-2-yl)amino)-7,8-dihydro-1,6-naphthyridin-6(5H)-yl)ethanone] | 7.97 | 8.36 | 8.49 | –
3 | CC(=O)N1Cc2ccc(Nc3ncc4c5ccncc5n([C@H]5CC[C@H](C)CC5)c4n3)nc2[C@H](C)C1 (single isomer, unassigned) [Example 18a, 1((R)-8-Methyl-2-((9-((1r,4R)-4-methylcyclohexyl)-9H-pyrido[4′,3′:4,5]pyrrolo[2,3-d]pyrimidin-2-yl)amino)-7,8-dihydro-1,6-naphthyridin-6(5H)-yl)ethanone or 1((S)-8-methyl-2-((9-((1r,4S)-4-methylcyclohexyl)-9H-pyrido[4′,3′:4,5]pyrrolo[2,3-d]pyrimidin-2-yl)amino)-7,8-dihydro-1,6-naphthyridin-6(5H)-yl)ethanone] | – | 7.73 | 8.80 | 7.62
4 | C[C@H](O)C(=O)N1CCc2nc(Nc3ncc4c5ccncc5n([C@H]5CC[C@H](C)CC5)c4n3)ccc2C1 [Example 32, (S)-2-Hydroxy-1-(2-((9-((1r,4r)-4-methylcyclohexyl)-9H-pyrido[4′,3′:4,5]pyrrolo[2,3-d]pyrimidin-2-yl)amino)-7,8-dihydro-1,6-naphthyridin-6(5H)-yl)propan-1-one] | 8.74 | 7.92 | – | –
5 | C[C@H]1CC[C@H](n2c3cnccc3c3cnc(Nc4cc5c(cn4)CNCC5)nc32)CC1 [Example 24, 9-((1r,4r)-4-Methylcyclohexyl)-N-(5,6,7,8-tetrahydro-2,7-naphthyridin-3-yl)-9H-pyrido[4′,3′:4,5]pyrrolo[2,3-d]pyrimidin-2-amine] | 8.46 | 8.33 | – | –
6 | C[C@H]1CC[C@H](n2c3cnccc3c3cnc(Nc4ccc5c(n4)CCNC5)nc32)CC1 [Example 1, 9-((1r,4r)-4-Methylcyclohexyl)-N-(5,6,7,8-tetrahydro-1,6-naphthyridin-2-yl)-9H-pyrido[4′,3′:4,5]pyrrolo[2,3-d]pyrimidin-2-amine] | 7.82 | 8.68 | 8.89 | –
7 | COc1cc2c3cnc(Nc4ccc5c(n4)CCN(C(=O)CO)C5)nc3n([C@H]3CC[C@H](C)CC3)c2cn1 [Example 20, 2-Hydroxy-1-(2-((6-methoxy-9-((1r,4r)-4-methylcyclohexyl)-9H-pyrido[4′,3′:4,5]-pyrrolo[2,3-d]pyrimidin-2-yl)amino)-7,8-dihydro-1,6-naphthyridin-6(5H)-yl)ethanone] | 6.68 | 6.07 | 6.84 | –
8 | CC(=O)N1CCc2nc(Nc3ncc4c5ccncc5n([C@H]5CC[C@H](C)CC5)c4n3)ccc2C1 [Example 2, 1-(2-((9-((1r,4r)-4-Methylcyclohexyl)-9H-pyrido[4′,3′:4,5]pyrrolo[2,3-d]pyrimidin-2-yl)amino)-7,8-dihydro-1,6-naphthyridin-6(5H)-yl)ethanone] | 7.65 | 8.35 | 8.49 | –
9 | COc1cc2c3cnc(Nc4ccc5c(n4)CCNC5)nc3n([C@H]3CC[C@H](C)CC3)c2cn1 [Example 19, 6-Methoxy-9-((1r,4r)-4-methylcyclohexyl)-N-(5,6,7,8-tetrahydro-1,6-naphthyridin-2-yl)-9H-pyrido[4′,3′:4,5]pyrrolo[2,3-d]pyrimidin-2-amine] | 6.69 | 5.75 | 7.48 | –
10 | CC(=O)N1Cc2ccc(Nc3ncc4c5ccncc5n([C@H]5CC[C@H](C)CC5)c4n3)nc2[C@@H](C)C1 (single isomer, unassigned) [Example 18b, 1-((R)-8-Methyl-2-((9-((1 r,4R)-4-methylcyclohexyl)-9H-pyrido[4′,3′:4,5]pyrrolo[2,3-d]pyrimidin-2-yl)amino)-7,8-dihydro-1,6-naphthyridin-6(5H)-yl)ethanone or 1-((S)-8-methyl-2-09-((1r,4S)-4-methylcyclohexyl)-9H-pyrido[4′,3′:4,5]pyrrolo[2,3-d]pyrimidin-2-yl)amino)-7,8-dihydro-1,6-naphthyridin-6(5H)-yl)ethanone] | – | 6.33 | 8.64 | 7.70
11 | CC(C)(C)OC(=O)N1CCc2ccc(Nc3ncc4c5ccncc5n([C@H]5CC[C@H](C)CC5)c4n3)nc2C1 [Example 35, tert-Butyl 2-((9-((1r,4r)-4-methylcyclohexyl)-9H-pyrido[4′,3′:4,5]pyrrolo[2,3-d]pyrimidin-2-yl)amino)-5,6-dihydro-1,7-naphthyridine-7(8H)-carboxylate] | 6.32 | 7.59 | – | –
12 | CC(C)(C)OC(=O)N1CCc2cc(Nc3ncc4c5ccncc5n([C@H]5CC[C@H](C)CC5)c4n3)ncc2C1 [Example 36, tert-Butyl 6-((9-((1r,4r)-4-methylcyclohexyl)-9H-pyrido[4′,3′:4,5]pyrrolo[2,3-d]pyrimidin-2-yl)amino)-3,4-dihydro-2,7-naphthyridine-2(1H)-carboxylate] | – | 6.46 | – | –
13 | C[C@H]1CC[C@H](n2c3cnccc3c3cnc(Nc4cc5c(cn4)CN(C(=O)CO)CC5)nc32)CC1 [Example 31, 2-Hydroxy-1-(6-((9-((1r,4r)-4-methylcyclohexyl)-9H-pyrido[4′,3′:4,5]pyrrolo[2,3-d]pyrimidin-2-yl)amino)-3,4-dihydro-2,7-naphthyridin-2(1H)-yl)ethanone] | 8.17 | 7.46 | – | –
14 | CCN(CC)CC(=O)N1CCc2nc(Nc3ncc4c5ccncc5n([C@H]5CC[C@H](C)CC5)c4n3)ccc2C1 [Example 37, 2-(Diethylamino)-1-(2-((9-((1r,4r)-4-methylcyclohexyl)-9H-pyrido[4′,3′:4,5]pyrrolo[2,3-d]pyrimidin-2-yl)amino)-7,8-dihydro-1,6-naphthyridin-6(5H)-yl)ethanone] | 8.85 | 8.52 | – | –
15 | C[C@H]1CC[C@H](n2c3cnccc3c3cnc(Nc4ccc5c(n4)CN(C(=O)CO)CC5)nc32)CC1 [Example 30, 2-Hydroxy-1-(2-((9-((1r,4r)-4-methylcyclohexyl)-9H-pyrido[4′,3′:4,5]pyrrolo[2,3-d]pyrimidin-2-yl)amino)-5,6-dihydro-1,7-naphthyridin-7(8H)-yl)ethanone] | 8.52 | 8.20 | – | –
16 | C[C@H]1CC[C@H](n2c3cnccc3c3cnc(Nc4ccc5c(n4)C(O)CN(CCO)C5)nc32)CC1 (stereo partly shown) [Example 17, 6-(2-Hydroxyethyl)-2-((9-((1r,4r)-4-methylcyclohexyl)-9H-pyrido[4′,3′:4,5]pyrrolo[2,3-d]pyrimidin-2-yl)amino)-5,6,7,8-tetrahydro-1,6-naphthyridin-8-ol] | 7.66 | – | – | –
17 | C[C@H]1CC[C@H](n2c3cnccc3c3cnc(Nc4ccc5c(n4)CNCC5)nc32)CC1 [Example 23, 9-((1r,4r)-4-Methylcyclohexyl)-N-(5,6,7,8-tetrahydro-1,7-naphthyridin-2-yl)-9H-pyrido[4′,3′:4,5]pyrrolo[2,3-d]pyrimidin-2-amine] | 8.82 | 8.07 | – | –
18 | C[C@H]1CC[C@H](n2c3cnccc3c3cnc(Nc4ccc5c(n4)CCN(CCC(F)(F)F)C5)nc32)CC1 [Example 7, 9-((1r,4r)-4-Methylcyclohexyl)-N-(6-(3,3,3-trifluoropropyl)-5,6,7,8-tetrahydro-1,6-naphthyridin-2-yl)-9H-pyrido[4′,3′:4,5]pyrrolo[2,3-d]pyrimidin-2-amine] | 6.69 | – | 7.67 | –
19 | C[C@@H](O)C(=O)N1CCc2nc(Nc3ncc4c5ccncc5n([C@H]5CC[C@H](C)CC5)c4n3)ccc2C1 [Example 33, (R)-2-hydroxy-1-(2-((9-((1r,4r)-4-methylcyclohexyl)-9H-pyrido[4′,3′:4,5]pyrrolo[2,3-d]pyrimidin-2-yl)amino)-7,8-dihydro-1,6-naphthyridin-6(5H)-yl)propan-1-one] | 8.51 | 7.39 | – | –
